Measurements: patent US11357779B2 (G1 Therapeutics, Inc., priority 2018, dated 2022)
Like-named read-outs stand apart in the source and are kept apart here.

Assay: Plasma concentration versus time of Compound I and metabolite Compound III in patients dosed QD or BID with Form B of Compound II plus fulvestrant
Assay type: in vivo, human
Settings: human, plasma, oral; for concentration at 0 h / concentration at 1 h / concentration at 2 h / concentration at 3 h / concentration at 4 h / concentration at 6 h / concentration at 8 h / concentration at 10 h / concentration at 12 h / concentration at 24 h: read-out: Compound I Concentration; for concentration at 8 day / concentration at 15 day / concentration at 22 day: Cohort 4, 500 mg QD of Form B; for concentration at 8 day: Day 8; for concentration at 15 day: Day 15; for concentration at 22 day: Day 22
Description: Patients were enrolled into 1 of 2 parallel, independently operating, dose-escalation dosing cohorts with Form B of Compound II administered continuously either once daily (QD) or twice daily (BID) with food with fixed-dose fulvestrant (intramuscularly every 14 days for the first three injections and then every 28 days). Pre- or perimenopausal patients also received goserelin for the duration of study treatment. A […] agonist was started at least 28 days before the first dose of Form B, and those patients who were taking another LHRH agonist were switched to goserelin on Day 1. Patients were split into […] cohorts providing once a day (QD) dosing of 200 mg, 300 mg, 400 mg, 500 mg, or 650 mg of Form B, or twice a day (BID) dosing of 100 mg, 150 mg, or 200 mg of Form B. The second dose in BID cohorts was not administered in the evening until at least 12 hours after the initial morning dose of Form B. The dosing cohorts for Form B of Compound II are provided in Table 1.
Blood samples were collected at the following time points relative to the morning dose of Form B at Day 1 and at Day 29: pre-dose (0 hour) and 1, 2, 3, 4, 6, 8, 10, 12 (prior to the evening dose in the BID cohorts), and 24 (prior to the next day's morning dose) hours after dosing. A 5-minute time window was allowed for samples collected between the predose and 3 hours after Form B dosing. A 15-minute window was allowed for samples collected between 4 to 12 hours after Form B dosing. A 1-hour window was allowed for the sample collected 24 hours after Form B dosing. Blood samples for Compound I PK trough levels were collected pre-dose at Day 8, Day 15, and Day 22 prior to the morning administration of Compound I. Plasma concentrations of Compound I and its metabolite, Compound III, were measured using validated methods.
Analysis of plasma concentration versus time data for calculation of standard pharmacokinetic (PK) parameters following oral administration was conducted using Phoenix WinNonlin version 6.3 using actual blood sampling times.

[1] = 500 mg, read-out: Trough Compound I Concentration, Max
[2] = 500 mg, read-out: Trough Compound I Concentration, Median

CC(C)N1CCN(c2ccc(Nc3ncc4cc5n(c4n3)C3(CCCCC3)CNC5=O)nc2)CC1 [Compound I, 2′-((5-(4-isopropylpiperazin-1-yl)pyridin-2-yl)amino)-7′,8′-dihydro-6′H-spiro[cyclohexane-1,9′-pyrazino[1′,2′:1,5]pyrrolo[2,3-d]pyrimidin]-6′-one]
concentration at 0 h (500 mg, 500 mg QD of Form B, Day 1, 0.0 h, Median): 0 ng/mL | concentration at 1 h (500 mg, 500 mg QD of Form B, Day 1, 1.0 h, Mean): 10.4 ng/mL | concentration at 1 h (500 mg, 500 mg QD of Form B, Day 1, 1.0 h, Median): 10.2 ng/mL | concentration at 2 h (500 mg, 500 mg QD of Form B, Day 1, 2.0 h, Mean): 18.5 ng/mL | concentration at 2 h (500 mg, 500 mg QD of Form B, Day 1, 2.0 h, Median): 18.1 ng/mL | concentration at 3 h (500 mg, 500 mg QD of Form B, Day 1, 3.0 h, Mean): 34.3 ng/mL | concentration at 3 h (500 mg, 500 mg QD of Form B, Day 1, 3.0 h, Median): 27.4 ng/mL | concentration at 4 h (500 mg, 500 mg QD of Form B, Day 1, 4.0 h, Mean): 35.4 ng/mL | concentration at 4 h (500 mg, 500 mg QD of Form B, Day 1, 4.0 h, Median): 35.3 ng/mL | concentration at 6 h (500 mg, 500 mg QD of Form B, Day 1, 6.0 h, Mean): 46.5 ng/mL | concentration at 6 h (500 mg, 500 mg QD of Form B, Day 1, 6.0 h, Median): 45.6 ng/mL | concentration at 8 h (500 mg, 500 mg QD of Form B, Day 1, 8.0 h, Mean): 40.6 ng/mL | concentration at 8 h (500 mg, 500 mg QD of Form B, Day 1, 8.0 h, Median): 42.3 ng/mL | concentration at 10 h (500 mg, 500 mg QD of Form B, Day 1, 10.0 h, Mean): 32.2 ng/mL | concentration at 10 h (500 mg, 500 mg QD of Form B, Day 1, 10.0 h, Median): 33.4 ng/mL | concentration at 12 h (500 mg, 500 mg QD of Form B, Day 1, 12.0 h, Mean): 27.8 ng/mL | concentration at 12 h (500 mg, 500 mg QD of Form B, Day 1, 12.0 h, Median): 28.3 ng/mL | concentration at 24 h (500 mg, 500 mg QD of Form B, Day 1, […], Mean): 8.93 ng/mL | concentration at 24 h (500 mg, 500 mg QD of Form B, Day 1, […], Median): 7.17 ng/mL | concentration at 0 h (500 mg, 500 mg QD of Form B, Day 29, 0.0 h, Mean): 14.4 ng/mL | concentration at 0 h (500 mg, 500 mg QD of Form B, Day 29, 0.0 h, Median): 15.3 ng/mL | concentration at 1 h (500 mg, 500 mg QD of Form B, Day 29, 1.0 h, Mean): 21.2 ng/mL | concentration at 1 h (500 mg, 500 mg QD of Form B, Day 29, 1.0 h, Median): 17.6 ng/mL | concentration at 2 h (500 mg, 500 mg QD of Form B, Day 29, 2.0 h, Mean): 34.2 ng/mL | concentration at 2 h (500 mg, 500 mg QD of Form B, Day 29, 2.0 h, Median): 33.8 ng/mL | concentration at 3 h (500 mg, 500 mg QD of Form B, Day 29, 3.0 h, Mean): 40.3 ng/mL | concentration at 3 h (500 mg, 500 mg QD of Form B, Day 29, 3.0 h, Median): 41.4 ng/mL | concentration at 4 h (500 mg, 500 mg QD of Form B, Day 29, 4.0 h, Mean): 41.8 ng/mL | concentration at 4 h (500 mg, 500 mg QD of Form B, Day 29, 4.0 h, Median): 44.9 ng/mL | concentration at 6 h (500 mg, 500 mg QD of Form B, Day 29, 6.0 h, Mean): 41.5 ng/mL | concentration at 6 h (500 mg, 500 mg QD of Form B, Day 29, 6.0 h, Median): 43.2 ng/mL | concentration at 8 h (500 mg, 500 mg QD of Form B, Day 29, 8.0 h, Mean): 34.1 ng/mL | concentration at 8 h (500 mg, 500 mg QD of Form B, Day 29, 8.0 h, Median): 33.5 ng/mL | concentration at 10 h (500 mg, 500 mg QD of Form B, Day 29, 10.0 h, Mean): 26.7 ng/mL | concentration at 10 h (500 mg, 500 mg QD of Form B, Day 29, 10.0 h, Median): 25.6 ng/mL | concentration at 12 h (500 mg, 500 mg QD of Form B, Day 29, 12.0 h, Mean): 24.4 ng/mL | concentration at 12 h (500 mg, 500 mg QD of Form B, Day 29, 12.0 h, Median): 25.2 ng/mL | concentration at 24 h (500 mg, 500 mg QD of Form B, Day 29, […], Mean): 12.5 ng/mL | concentration at 24 h (500 mg, 500 mg QD of Form B, Day 29, […], Median): 13 ng/mL | concentration at 8 day [1]: 23.5 ng/mL | concentration at 8 day [2]: 17.2 ng/mL | concentration at 15 day [1]: 32.8 ng/mL | concentration at 15 day [2]: 23.9 ng/mL | concentration at 22 day [1]: 27.3 ng/mL | concentration at 22 day [2]: 17.7 ng/mL | concentration at 0 h (650 mg, 650 mg QD of Form B, Day 1, 0.0 h, Mean): 0 ng/mL | concentration at 0 h (650 mg, 650 mg QD of Form B, Day 1, 0.0 h, Median): 0 ng/mL | concentration at 1 h (650 mg, 650 mg QD of Form B, Day 1, 1.0 h, Mean): 12.7 ng/mL | concentration at 1 h (650 mg, 650 mg QD of Form B, Day 1, 1.0 h, Median): 9.68 ng/mL | concentration at 2 h (650 mg, 650 mg QD of Form B, Day 1, 2.0 h, Mean): 24.8 ng/mL | concentration at 2 h (650 mg, 650 mg QD of Form B, Day 1, 2.0 h, Median): 19.1 ng/mL | concentration at 3 h (650 mg, 650 mg QD of Form B, Day 1, 3.0 h, Mean): 30.9 ng/mL | concentration at 3 h (650 mg, 650 mg QD of Form B, Day 1, 3.0 h, Median): 31.6 ng/mL | concentration at 4 h (650 mg, 650 mg QD of Form B, Day 1, 4.0 h, Mean): 43.7 ng/mL | concentration at 4 h (650 mg, 650 mg QD of Form B, Day 1, 4.0 h, Median): 43.5 ng/mL | concentration at 6 h (650 mg, 650 mg QD of Form B, Day 1, 6.0 h, Mean): 52.7 ng/mL | concentration at 6 h (650 mg, 650 mg QD of Form B, Day 1, 6.0 h, Median): 49.8 ng/mL | concentration at 8 h (650 mg, 650 mg QD of Form B, Day 1, 8.0 h, Mean): 59.6 ng/mL
